# Target: T1, TNKS1 (Homo sapiens, UniProt O95271)
# T1 sequence (O95271 1-1327): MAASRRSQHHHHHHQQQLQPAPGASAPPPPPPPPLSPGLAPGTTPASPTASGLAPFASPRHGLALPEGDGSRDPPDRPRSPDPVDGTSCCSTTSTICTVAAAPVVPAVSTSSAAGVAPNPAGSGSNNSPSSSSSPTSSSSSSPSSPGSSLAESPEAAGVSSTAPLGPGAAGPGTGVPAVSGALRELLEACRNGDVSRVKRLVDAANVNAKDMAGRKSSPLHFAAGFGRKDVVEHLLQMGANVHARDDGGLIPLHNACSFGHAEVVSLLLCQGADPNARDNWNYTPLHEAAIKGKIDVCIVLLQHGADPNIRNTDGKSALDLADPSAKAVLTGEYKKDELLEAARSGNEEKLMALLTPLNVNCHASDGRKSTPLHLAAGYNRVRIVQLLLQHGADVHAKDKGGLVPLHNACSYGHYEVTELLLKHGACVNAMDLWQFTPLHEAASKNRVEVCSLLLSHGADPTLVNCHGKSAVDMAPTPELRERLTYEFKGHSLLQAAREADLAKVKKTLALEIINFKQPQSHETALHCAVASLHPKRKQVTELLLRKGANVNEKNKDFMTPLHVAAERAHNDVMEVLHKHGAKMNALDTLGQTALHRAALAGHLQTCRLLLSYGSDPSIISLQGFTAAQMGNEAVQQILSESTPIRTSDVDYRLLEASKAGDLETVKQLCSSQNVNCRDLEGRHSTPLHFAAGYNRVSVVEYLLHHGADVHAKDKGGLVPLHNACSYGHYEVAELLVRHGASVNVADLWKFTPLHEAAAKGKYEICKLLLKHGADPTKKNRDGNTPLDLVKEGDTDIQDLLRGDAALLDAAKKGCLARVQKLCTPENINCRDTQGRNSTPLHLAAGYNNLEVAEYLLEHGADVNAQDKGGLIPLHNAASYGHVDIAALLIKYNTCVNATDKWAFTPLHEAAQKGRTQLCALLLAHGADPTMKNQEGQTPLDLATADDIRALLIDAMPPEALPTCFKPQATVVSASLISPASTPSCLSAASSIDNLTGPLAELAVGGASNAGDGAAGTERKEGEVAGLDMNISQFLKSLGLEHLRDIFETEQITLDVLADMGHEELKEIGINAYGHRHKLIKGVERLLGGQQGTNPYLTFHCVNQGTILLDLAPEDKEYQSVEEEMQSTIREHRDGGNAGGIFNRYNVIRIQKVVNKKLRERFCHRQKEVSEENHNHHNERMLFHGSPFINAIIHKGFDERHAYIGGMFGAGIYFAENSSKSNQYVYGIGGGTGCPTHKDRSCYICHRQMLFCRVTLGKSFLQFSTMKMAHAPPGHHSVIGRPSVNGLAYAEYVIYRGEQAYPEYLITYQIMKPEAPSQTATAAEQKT
# Experiment: Modified TNKS1 Assay 3 (BPS kit #80573, biotin-NAD+, 96 well)
# Type: biochemical
# Conditions: human TNKS1, BPS kit #80573, 96 well
# Outline: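 Chemiluminescent assay of TNKS1-catalysed ribosylation of a protein substrate with biotin-labelled NAD+, detected via streptavidin-HRP; run per kit protocol. Inhibition lowers the signal, and IC50 is the compound concentration halving the normalised readout.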
row,Structure (SMILES),IC50 [nM]
1,"CNC(=O)c1nc[nH]c1C(=O)Nc1ccc(NC(=O)c2ccc(F)cc2Cl)cc1 [Example 12, N^5-{4-[(2-chloro-4-fluorobenzoyl)amino]phenyl}-N^4-methyl-1H-imidazole-4,5-dicarboxamide]",260
2,"CNC(=O)c1nc[nH]c1C(=O)Nc1ccc(NC(=O)c2ccc(F)cc2Cl)nc1 [Example 16, N^5-{6-[(2-chloro-4-fluorobenzoyl)amino]pyridin-3-yl}-N^4-methyl-1H-imidazole-4,5-dicarboxamide]",130
3,"O=C(Nc1ccc(NC(=O)c2[nH]cnc2C(=O)NCC(F)(F)F)cc1)c1ccc(F)cc1Cl [Example 30, N^4-{4-[(2-chloro-4-fluorobenzoyl)amino]phenyl}-N^5-(2,2,2-trifluoroethyl)-1H-imidazole-4,5-dicarboxamide]",400
4,"CNC(=O)c1nc[nH]c1C(=O)Nc1ccc(NC(=O)c2c(F)cc(F)cc2Cl)cc1 [Example 118, N^5-{4-[(2-chloro-4,6-difluorobenzoyl)amino]phenyl}-N^4-methyl-1H-imidazole-4,5-dicarboxamide]",> 500
5,NC(=O)c1nc[nH]c1C(=O)Nc1ccc(NC(=O)c2ccc(F)cc2Cl)cc1 [Example 121],> 500
6,"COCCNC(=O)c1[nH]cnc1C(=O)Nc1ccc(NC(=O)c2ccc(F)cc2Cl)cc1 [Example 130, N^4-{4-[(2-chloro-4-fluorobenzoyl)amino]phenyl}-N^5-(2-methoxyethyl)-1H-imidazole-4,5-dicarboxamide]",150
7,"O=C(Nc1ccc(NC(=O)c2nc[nH]c2C(=O)NC2CCOC2)cc1)c1ccc(F)cc1Cl (centres unmarked) [Example 236, N^4-{4-[(2-chloro-4-fluorobenzoyl)amino]phenyl}-N^5-(tetrahydrofuran-3-yl)-1H-imidazole-4,5-dicarboxamide]",430
8,"CNC(=O)c1nc[nH]c1C(=O)Nc1ccc(NC(=O)c2cc(F)c(F)cc2Cl)cc1 [Example 242, N^5-{4-[(2-chloro-4,5-difluorobenzoyl)amino]phenyl}-N^4-methyl-1H-imidazole-4,5-dicarboxamide]",380
9,"CNC(=O)c1nc[nH]c1C(=O)Nc1ccc(NC(=O)c2ccc(C)cc2Cl)cc1 [Example 244, N^5-{4-[(2-chloro-4-methylbenzoyl)amino]phenyl}-N^4-methyl-1H-imidazole-4,5-dicarboxamide]",150

# Stronger by IC50, values ahead:
row,IC50 [nM],Structure (SMILES)
1,2,"CC1CCN(CCNC(=O)c2nc[nH]c2C(=O)Nc2ccc(NC(=O)c3ccc(F)cc3Cl)cc2)CC1 [Example 126, N^5-{4-[(2-chloro-4-fluorobenzoyl)amino]phenyl}-N^4-[2-(4-methylpiperidin-1-yl)ethyl]-1H-imidazole-4,5-dicarboxamide]"
2,40,"CC1CCCN(CCNC(=O)c2[nH]cnc2C(=O)Nc2ccc(NC(=O)c3ccc(F)cc3Cl)cc2)C1 (centres unmarked) [Example 208, N^4-{4-[(2-chloro-4-fluorobenzoyl)amino]phenyl}-N^5-[2-(3-methylpiperidin-1-yl)ethyl]-1H-imidazole-4,5-dicarboxamide]"
3,3,"O=C(Nc1ccc(NC(=O)c2nc[nH]c2C(=O)NCCN2CCCCC2)cc1)c1ccc(F)cc1Br [Example 216, N^4-{4-[(2-bromo-4-fluorobenzoyl)amino]phenyl}-N^5-[2-(piperidin-1-yl)ethyl]-1H-imidazole-4,5-dicarboxamide]"
4,40,"O=C(Nc1ccc(NC(=O)c2nc[nH]c2C(=O)NCCN2CCCC(F)C2)cc1)c1ccc(F)cc1Cl (centres unmarked) [Example 226, N^4-{4-[(2-chloro-4-fluorobenzoyl)amino]phenyl}-N^5-[2-(3-fluoropiperidin-1-yl)ethyl]-1H-imidazole-4,5-dicarboxamide]"
5,20,"CNC(=O)c1nc[nH]c1C(=O)Nc1ccc(NC(=O)c2cc(OC)c(OC)cc2Cl)cc1 [Example 240, N^5-{4-[(2-chloro-4,5-dimethoxybenzoyl)amino]phenyl}-N^4-methyl-1H-imidazole-4,5-dicarboxamide]"

# From US9884063B2, “Amido-substituted azole compounds” (Bayer Pharma Aktiengesellschaft, priority 2014, dated 2018)
